Data taken from patent US11242337B2, “Compounds useful for treating gastrointestinal tract disorders” (Ardelyx, Inc., priority 2017, dated 2022).

What was measured:
[1] = system: human duodenum monolayer culture; test: Sustained inhibition of apical acid secretion in human organoid monolayer cell cultures (duodenum); type: cell-based; settings: Homo sapiens
Method in brief: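 Duodenum organoid cells were plated on Transwells, differentiated with EGF/noggin/A83-01 from day 3, and dosed apically on day 6 with compound at 1 μM final (DMSO vehicle control), in duplicate wells, at 37° C, 5% CO2. Apical media pH was measured by electrode on day 8.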

[2] = system: human ileum monolayer culture; test: Sustained inhibition of apical acid secretion in human organoid monolayer cell cultures (ileum); type: cell-based; settings: Homo sapiens, 48 h; 1 μM apical, dosed day 6, apical media pH day 8, vs DMSO
Method in brief: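 Human ileum organoid-derived Transwell monolayers, differentiated with ENRA from day 3, received 1 μM compound apically on day 6 (DMSO vehicle, duplicate wells). Apical medium pH was measured by electrode on day 8 as a readout of sustained NHE3-mediated proton secretion inhibition.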

SMILES	inhibition at 1 µM [1]	inhibition at 1 µM [2]
N#Cc1cc(Cl)cc2c1C[C@H](N1CCNCC1)[C@H]2Oc1ccc(S(=O)(=O)N[C@H]2CCN(CCOCCNC(=O)NCCCCNC(=O)NCCOCCN3CC[C@H](NS(=O)(=O)c4ccc(O[C@H]5c6cc(Cl)cc(C#N)c6C[C@@H]5N5CCNCC5)cc4)C3)C2)cc1 [Example 107, 4-([(1S,2S)-6-Chloro-4-cyano-2-(piperazin-1-yl)-2,3-dihydro-1H-inden-1-yl]oxy)-N—[(S)-1-(20-[(S)-3-([4-([(1S,2S)-6-chloro-4-cyano-2-(piperazin-1-yl)-2,3-dihydro-1H-inden-1-yl]oxy)phenyl]sulfonamido)pyrrolidin-1-yl]-7,14-dioxo-3,18-dioxa-6,8,13,15-tetraazaicosyl)pyrrolidin-3-yl]benzenesulfonamide; tetra(trifluoroacetate)]	> 70%	> 70%
N#Cc1cc(Cl)cc2c1C[C@H](N1CCNCC1)[C@H]2Oc1ccc(S(=O)(=O)N[C@@H]2CCN(CCOCCNC(=O)NCCCCNC(=O)NCCOCCN3CC[C@@H](NS(=O)(=O)c4ccc(O[C@H]5c6cc(Cl)cc(C#N)c6C[C@@H]5N5CCNCC5)c(F)c4)C3)C2)cc1F [Example 109, 4-([(1S,2S)-6-Chloro-4-cyano-2-(piperazin-1-yl)-2,3-dihydro-1H-inden-1-yl]oxy)-N—[(R)-1-(20-[(R)-3-[(4-([(1S,2S)-6-chloro-4-cyano-2-(piperazin-1-yl)-2,3-dihydro-1H-inden-1-yl]oxy)-3-fluorophenyl)sulfonamide)pyrrolidin-1-yl]-7,14-dioxo-3,18-dioxa-6,8,13,15-tetraazaicosyl)pyrrolidin-3-yl]-3-fluorobenzenesulfonamide; tetra(trifluoroacetate)]	> 70%	> 70%
N#Cc1cc(Cl)cc2c1C[C@H](N1CCNCC1)[C@H]2Oc1ccc(S(=O)(=O)N[C@H]2CCN(CCOCCNC(=O)NCCCCNC(=O)NCCOCCN3CC[C@H](NS(=O)(=O)c4ccc(O[C@H]5c6cc(Cl)cc(C#N)c6C[C@@H]5N5CCNCC5)c(F)c4)C3)C2)cc1F [Example 110, 4-([(1S,2S)-6-Chloro-4-cyano-2-(piperazin-1-yl)-2,3-dihydro-1H-inden-1-yl]oxy)-N—[(S)-1-(20-[(S)-3-[(4-([(1S,2S)-6-chloro-4-cyano-2-(piperazin-1-yl)-2,3-dihydro-1H-inden-1-yl]oxy)-3-fluorophenyl)sulfonamide)pyrrolidin-1-yl]-7,14-dioxo-3,18-dioxa-6,8,13,15-tetraazaicosyl)pyrrolidin-3-yl]-3-fluorobenzenesulfonamide; tetra(trifluoroacetate)]	> 70%	> 70%
N#Cc1cc(Cl)cc2c1C[C@H](N1CCNCC1)[C@H]2Oc1ccc(S(=O)(=O)NC2CCN(C(=O)CCCNC(=O)NCCCCNC(=O)NCCCC(=O)N3CCC(NS(=O)(=O)c4ccc(O[C@H]5c6cc(Cl)cc(C#N)c6C[C@@H]5N5CCNCC5)cc4)CC3)CC2)cc1 [Example 115]	> 70%	> 70%
CN(C)[C@H]1CCCN([C@H]2Cc3c(C#N)cc(Cl)cc3[C@@H]2Oc2ccc(S(=O)(=O)NCCOCCOCCNC(=O)NCCCCNC(=O)NCCOCCOCCNS(=O)(=O)c3ccc(O[C@H]4c5cc(Cl)cc(C#N)c5C[C@@H]4N4CCC[C@H](N(C)C)C4)cc3)cc2)C1 [Example 122, 4-([(1S,2S)-6-Chloro-4-cyano-2-[(S)-3-(dimethylamino)piperidin-1-yl]-2,3-dihydro-1H-inden-1-yl]oxy)-N-[26-([4-([(1S,2S)-6-chloro-4-cyano-2-[(S)-3-(dimethylamino)piperidin-1-yl]-2,3-dihydro-1H-inden-1-yl]oxy)phenyl]sulfonamido)-10,17-dioxo-3,6,21,24-tetraoxa-9,11,16,18-tetraazahexacosyl]benzenesulfonamide]	> 70%	> 70%
N#Cc1cc(Cl)cc2c1C[C@H](N1CCNCC1)[C@H]2Oc1ccc(S(=O)(=O)NC2CCN(CCOCCNC(=O)NCCCCNC(=O)NCCOCCN3CCC(NS(=O)(=O)c4ccc(O[C@H]5c6cc(Cl)cc(C#N)c6C[C@@H]5N5CCNCC5)cc4)CC3)CC2)cc1 [Example 123, 4-([(1S,2S)-6-Chloro-4-cyano-2-(piperazin-1-yl)-2,3-dihydro-1H-inden-1-yl]oxy)-N-[1-(20-[4-([4-([(1S,2S)-6-chloro-4-cyano-2-(piperazin-1-yl)-2,3-dihydro-1H-inden-1-yl]oxy)phenyl]sulfonamide]piperidin-1-yl)-7,14-dioxo-3,18-dioxa-6,8,13,15-tetraazaicosyl]piperidin-4-yl)benzenesulfonamide]	> 70%	> 70%
N#Cc1cc(Cl)cc2c1C[C@H](N1CCCNCC1)[C@H]2Oc1ccc(S(=O)(=O)N[C@H]2CCN(CCOCCNC(=O)NCCCCNC(=O)NCCOCCN3CC[C@H](NS(=O)(=O)c4ccc(O[C@H]5c6cc(Cl)cc(C#N)c6C[C@@H]5N5CCCNCC5)cc4)C3)C2)cc1 [Example 126, 4-([(1S,2S)-6-Chloro-4-cyano-2-(1,4-diazepan-1-yl)-2,3-dihydro-1H-inden-1-yl]oxy)-N—[(S)-1-(20-[(S)-3-([4-([(1S,2S)-6-chloro-4-cyano-2-(1,4-diazepan-1-yl)-2,3-dihydro-1H-inden-1-yl]oxy)phenyl]sulfonamido)pyrrolidin-1-yl]-7,14-dioxo-3,18-dioxa-6,8,13,15-tetraazaicosyl)pyrrolidin-3-yl]benzenesulfonamide]	< 50%	< 50%
